According to patent EP0105658A1, “Beta-lactam compounds” (BEECHAM GROUP PLC, priority 1982, dated 1984):
In brackets after ≈: the same amount, converted by molar mass. Where two headings read alike, the source gives them in different places.

Legend:
[1] = Stability in kidney preparations (pig); assay type: in vitro ADME; settings: 100 mg/ml solubilised in 5% Triton X-100, * racemic compounds: figures based on stability of bio-active enantiomer
[2] = tested on: R + E coli; test: MIC, antibacterial activity (microtitre using nutrient broth); assay type: cell-based; settings: * racemic, not corrected for presence of inactive enantiomer
[3] = tested on: S aureus Russell; test: as above; assay type: cell-based; settings: * racemic, not corrected for presence of inactive enantiomer
[4] = Stability in kidney preparations (human); assay type: in vitro ADME
[5] = tested on: S typhimurium CT10; test: MIC, antibacterial activity (microtitre using nutrient broth); assay type: cell-based; settings: * racemic, not corrected for presence of inactive enantiomer
[6] = tested on: Pseudomonas aeruginosa A; test: as above; assay type: cell-based; settings: for MIC: Pseudomonas aeruginosa
[7] = tested on: E. coli JT39; test: MIC against E. coli JT39; assay type: cell-based; design: unit not given here
[8] = 15% solubilised in 5% Triton X-100, 60 minutes, * racemic compounds: figures based on stability of bio-active enantiomer
[9] = Microtitre using Nutrient broth, * racemic, not corrected for presence of inactive enantiomer, read-out: MIC P aeruginosa A

% left after 60 minutes Pig Kidney Acetone Powder [1]	MIC [2]	MIC [3]	% left after 60 minutes Human Kidney Sonicate [4, 8]	MIC [5]	MIC [6, 9]	MIC R + E coli [2]	MIC S aureus Russell [3]	MIC S typhimurium CT10 [5]	MIC P aeruginosa A ([6]; Microtitre using Nutrient broth, * racemic, not corrected for presence of inactive enantiomer)	SMILES	MIC against E. coli JT39 [7]	MIC ([6]; read-out: MIC against Pseudomonas aeruginosa A)	% left after 60 minutes Human Kidney Sonicate ([4]; human, 60 min)
40%	0.4 µg/mL	0.08 µg/mL	39%	0.6 µg/mL	25 µg/mL					C[C@@H](O)[C@H]1C(=O)N2C(C(=O)O)=C(S/C=C\CN)C[C@H]12 (racemic) [Example 13, (5RS, 6SR)-3-[(Z)-3-Aminoprop-1-enylthio]-b-[(1RS)-1-hydroxyethyl]-7-oxo-1-azabicyclo[3.2.0]hept-2-ene-2-carboxylic acid]			
36%	0.4 µg/mL	< 0.1 µg/mL	23%	0.4 µg/mL	25 µg/mL					C/C(=C\CN)SC1=C(C(=O)O)N2C(=O)[C@H]([C@@H](C)O)[C@H]2C1 (racemic) [Example 14, (5RS, 6SR)-3-[(E)-3-amino-1-methylprop-1-enylthio]-6-[(RS)-1-hydroxyethyl]-7-oxo=1-azabicyclo[3.2.0]hept-2-ene-2-carboxylic acid]			
						0.3 µg/mL	0.08 µg/mL	0.6 µg/mL	25 µg/mL	C[C@@H](O)[C@H]1C(=O)N2C(C(=O)O)=C(S/C=C\CN)C[C@H]12 [Example 2, (5R,6S)-3-[(Z)-3-aminoprop-1-enylthio]-6-[(R)-1-hydroxyethyl]-7-oxo-1-azabicy,clo[3.2.0]hept-2-ene-2-carboxylic acid]			
78%	1.6 µg/mL	< 0.1 µg/mL	51%	< 0.1 µg/mL	25 µg/mL					C/C(=C/CN)SC1=C(C(=O)O)N2C(=O)[C@@H]([C@H](C)O)[C@H]2C1 [Example 8]			
		0.1 µg/mL		0.2 µg/mL	25 µg/mL					C/C(=C/CN)SC1=C(C(=O)O)N2C(=O)[C@H]([C@@H](C)O)[C@H]2C1 [Example 10, (5R,6S)-3-[(Z)-3-amino-1-methylprop-1-enylthio]-6-[(R)-1-hydroxyethyl]-7-oxo-1-azabicyclo[3.2.0]hept-2-ene-2-carboxylic acid]			56%
6%	< 0.1 µg/mL	< 0.1 µg/mL	7%	0.4 µg/mL	12.5 µg/mL					C[C@H](O)[C@@H]1C(=O)N2C(C(=O)O)=C(S/C=C/CN)C[C@H]12 [Example 11, (5R,6R)-3-[(E)-3-aminoprop-1-enylthio]-6-[(S)-1-hydroxyethyl]-7-oxo-1-azabicyelo[3.2.0]hept-2-ene-2-carboxylic acid]			

SMILES	% left after 60 minutes Pig Kidney Acetone Powder [1]	MIC [2]	MIC [3]	% left after 60 minutes Human Kidney Sonicate [4, 8]	MIC [5]	MIC [6, 9]	MIC R + E coli [2]	MIC S aureus Russell [3]	MIC S typhimurium CT10 [5]	MIC P aeruginosa A ([6]; Microtitre using Nutrient broth, * racemic, not corrected for presence of inactive enantiomer)	MIC against E. coli JT39 [7]	MIC ([6]; read-out: MIC against Pseudomonas aeruginosa A)	% left after 60 minutes Human Kidney Sonicate ([4]; human, 60 min)
C[C@H](O)[C@@H]1C(=O)N2C(C(=O)O)=C(S/C=C\CN)C[C@H]12 [Example 1]	39%			40%							0.4	6.2 µg/mL (≈ 21.8 µM)	
C[C@@H](O)[C@H]1C(=O)N2C(C(=O)O)=C(S/C=C/CN)C[C@H]12 [Example 12, (5R, 6S)-3-[(E)-3-aminoprop-1-enylthio]-6-[(R)-1-hydroxyethyl]-7-oxo-1-azabicyclo[3.2.0]hept-2-ene-2-carboxylic acid]			< 0.1 µg/mL		0.2 µg/mL	12.5 µg/mL							5%
C/C(=C\CN)SC1=C(C(=O)O)N2C(=O)[C@@H]([C@H](C)O)[C@H]2C1 [Example 16, (5R, 6R)-3-[(E)-3-amino-1-methylprop-1-enylthio]-6-[(S)-1-hydroxyethyl]-7-oxo-1-azabicyclo[3.2.0]hept-2-ene-2-carboxylate]	38%	1.6 µg/mL	< 0.1 µg/mL	13%	0.2 µg/mL	25 µg/mL							
